molecular target: T1, ALK2 R206H (GST-tagged mutant ALK2) (Homo sapiens, UniProt Q04771, R206H); test: ALK binding assay (LANTHASCREEN TR-FRET competitive binding, displacement of Kinase Tracer 178); details: ALK2 R206H, LANTHASCREEN TR-FRET competitive binding; read-out: Binding Assay (IC50)
T1 construct: purchased Carna Bioscience or ThermoFisher 09-148 or PV6232
T1 sequence (Q04771 21-509 R206H): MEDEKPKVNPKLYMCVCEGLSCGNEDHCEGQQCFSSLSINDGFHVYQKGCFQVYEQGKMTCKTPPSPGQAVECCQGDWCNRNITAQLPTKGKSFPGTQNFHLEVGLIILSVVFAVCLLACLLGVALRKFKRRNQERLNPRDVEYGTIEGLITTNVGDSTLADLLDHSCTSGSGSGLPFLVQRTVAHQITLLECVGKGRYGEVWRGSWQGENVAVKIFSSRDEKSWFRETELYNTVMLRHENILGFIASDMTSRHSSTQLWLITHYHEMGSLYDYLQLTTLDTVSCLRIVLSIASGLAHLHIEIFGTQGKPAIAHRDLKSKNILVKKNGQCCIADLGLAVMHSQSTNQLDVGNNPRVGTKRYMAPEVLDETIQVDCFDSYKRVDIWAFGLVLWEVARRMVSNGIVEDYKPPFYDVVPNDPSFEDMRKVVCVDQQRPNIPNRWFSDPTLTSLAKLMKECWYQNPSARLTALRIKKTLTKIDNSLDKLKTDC
Protocol: Binding assays were conducted using the LANTHASCREEN® technology (ThermoFisher Scientific). LANTHASCREEN® is a competitive binding, displacement assay where the assumed steady state occupancy of the binding site is measured using a time-resolved, fluorescence energy transfer (TR-FRET) readout between a fluorescent tracer and Europium (Eu)-tagged antibody specific for the kinase or expression tag (e.g. GST) of interest. Displacement of the tracer by a compound of the disclosure reduces, and is directly proportional to, the TR-FRET between the tracer and the antibody. Tracer was used at a concentration equal to or near to its Kd for the kinase.
In all cases, the kinase (2-5 nM) was mixed with Eu-tagged antibody (10 nM) mix and tracer (50 nM) were incubated with test compound titrations prepared in 100% DMSO (1% DMSO final) for 30 minutes at room temperature. All reagents and compounds were dissolved in Kinase Buffer A (ThermoFisher) to achieve the final concentration. […] This readout was normalized to 0% and 100% inhibited control wells, plotted against inhibitor concentration, and fitted to a 4-parameter log dose response curve.
Blank values in the table indicate that the particular compound was not tested in this assay.

| IC50 [nM] | SMILES |
| --- | --- |
| 10 to 50 | CCN1CCN(c2ccc(-c3cc4c(N5CCN(C(=O)N6CC7(COC7)C6)CC5)ccnn4c3)cc2)CC1 [Compound 417] |
| > 50 | CCN1CCN(c2ccc(-c3cc4c(N5CCN(C(=O)N6CC(COC)C6)CC5)ccnn4c3)cc2)CC1 [Compound 425] |
| > 50 | CCN1CCN(c2ccc(-c3cc4c(N5CCN(C(=O)C6(c7cccnc7)CC6)CC5)ccnn4c3)cc2)CC1 [Compound 433] |
| 10 to 50 | CCN1CCN(c2ccc(-c3cc4c(N5CCN(C(=O)C6(c7cccs7)CC6)CC5)ccnn4c3)cc2)CC1 [Compound 438] |
| 10 to 50 | CCN1CCN(c2ccc(-c3cc4c(N5CCN(C(=O)C6(c7ccsc7)CC6)CC5)ccnn4c3)cc2)CC1 [Compound 439] |
| > 50 | CCN1CCN(c2ccc(-c3cc4c(N5CCN(C(=O)C6(c7nccs7)CC6)CC5)ccnn4c3)cc2)CC1 [Compound 440] |
| 10 to 50 | CCN1CCN(c2ccc(-c3cc4c(N5CCN(C(=O)C6(c7cccc(F)c7)CC6)CC5)ccnn4c3)cc2)CC1 [Compound 443] |
| 10 to 50 | CCN1CCC(c2ccc(-c3cc4c(N5CCN(C(=O)C6CC6c6ccc(Cl)cc6)CC5)ccnn4c3)cc2)C1 (stereo not drawn) [Compound 444] |
| < 10 | CCN1CCC(c2ccc(-c3cc4c(N5CCN(C(=O)C6CC(O)(c7ccccc7)C6)CC5)ccnn4c3)cc2)CC1 (stereo not drawn) [Compound 446] |
| < 10 | N[C@H]1CCc2cc(-c3cc4c(N5CCN(C(=O)C6CC6)CC5)ccnn4c3)ccc21 [Compound 449] |
| < 10 | N[C@H]1CCN(c2ccc(-c3cc4c(N5CCN(C(=O)C6CC6)CC5)ccnn4c3)cc2)C1 [Compound 461] |
| > 50 | CC(c1ccc(-c2cc3c(N4CCN(C(=O)C5CC5)CC4)ccnn3c2)cc1)N1CCCC1 (stereo not drawn) [Compound 471] |
| < 10 | CC(C)N[C@H]1CCc2cc(-c3cc4c(N5CCN(C(=O)C6CC6)CC5)ccnn4c3)ccc21 [Compound 472] |
| 10 to 50 | CC(C)N1C[C@H](c2ccc(-c3cc4c(N5CCN(C(=O)C6CC6)CC5)ccnn4c3)cc2)C[C@H]1C [Compound 506] |
| < 10 | CC(C)N1CCC(c2ncc(-c3cc4c(N5CCN(C(=O)C6CC6)CC5)ccnn4c3)cn2)CC1 [Compound 525] |
| 10 to 50 | CC(C)N1CCN(c2cnc(-c3cc4c(N5CCN(C(=O)C6CC6)CC5)ccnn4c3)nc2)CC1 [Compound 528] |
| < 10 | CC(C)N1CCN(c2cnc(-c3cc4c(N5CCN(C(=O)C6CC6)CC5)ccnn4c3)cn2)CC1 [Compound 529] |
| < 10 | CCOC(=O)N1CCN(c2ccnn3cc(-c4ccc([C@]5(C)CCCN5C(C)C)cc4)cc23)CC1 [Compound 535] |
| < 10 | CCOC(=O)N1CCN(c2ccnn3cc(-c4ccc([C@@]5(C)CCCN5C(C)C)cc4)cc23)CC1 [Compound 536] |
| < 10 | CCNC(=O)N1CCN(c2ccnn3cc(-c4cnc(C5CCN(C(C)C)CC5)nc4)cc23)CC1 [Compound 547] |
| < 10 | CCOC(=O)N1CCN(c2ccnn3cc(-c4cnc(C5CCN(C(C)C)CC5)nc4)cc23)CC1 [Compound 552] |
| 10 to 50 | CCNC(=O)N1CCN(c2ccnn3cc(-c4ncc(N5CCN(C(C)C)CC5)cn4)cc23)CC1 [Compound 553] |
| < 10 | CCOC(=O)N1CCN(c2ccnn3cc(-c4ncc(N5CCN(C(C)C)CC5)cn4)cc23)CC1 [Compound 555] |
| < 10 | CC(C)N1CCN[C@@](C)(c2ccc(-c3cc4c(N5CCN(C(=O)C6CC6)CC5)ccnn4c3)cc2)C1 [Compound 569] |
| < 10 | CC(C)N1CC=C(c2ccc(-c3cc4c(N5CCN(C(=O)C6CC6)CC5)ccnn4c3)c(F)c2)CC1 [Compound 571] |
| < 10 | CC(C)N1CCC(c2ccc(-c3cc4c(N5CCN(C(=O)C6COC6)CC5)ccnn4c3)cc2)CC1 [Compound 574] |
| < 10 | CC(C)N1CCC(c2ccc(-c3cc4c(N5CCN(C(=O)C6CC6)CC5)ccnn4c3)c(F)c2)CC1 [Compound 584] |

| IC50 [nM] | SMILES |
| --- | --- |
| < 10 | COCNC(=O)N1CCN(c2ccnn3cc(-c4ccc(C5CCN(C(C)C)CC5)cc4)cc23)CC1 [Compound 590] |
| < 10 | CCOC(=O)N1CCN(c2ccnn3cc(-c4ccc(C5=CCN(C(C)C)CC5)cc4F)cc23)CC1 [Compound 602] |
| < 10 | CC(C)NC(=O)N1CCN(c2ccnn3cc(-c4ccc([C@]5(O)CCN(C(C)C)C5)cn4)cc23)CC1 [Compound 607] |
| < 10 | CCOC(=O)N1CCN(c2ccnn3cc(-c4ccc(C5CCN(C(C)C)CC5)cc4F)cc23)CC1 [Compound 612] |
| < 10 | CCNC(=O)N1CCN(c2ccnn3cc(-c4ccc([C@]5(OC)CCCN(C(C)C)C5)cc4)cc23)CC1 [Compound 639] |
| < 10 | CCNC(=O)N1CCN(c2ccnn3cc(-c4ccc([C@@]5(OC)CCCN(C(C)C)C5)cc4)cc23)CC1 [Compound 640] |
| < 10 | CC(C)N1CCC(c2ccc(-c3cc4c(N5CCN(C(=O)OCC(C)(C)C)CC5)ccnn4c3)cc2)CC1 [Compound 670] |
| < 10 | CC(C)NC(=O)N1CCN(c2ccnn3cc(-c4ccc(C5CCN(C(C)C)CC5)cc4Cl)cc23)CC1 [Compound 700] |
| < 10 | CC(C)N1CCCC(O)(c2ccc(-c3cc4c(N5CCN(C(=O)C6CC(C#N)C6)CC5)ccnn4c3)cc2)C1 (stereo not drawn) [Compound 707] |
| < 10 | CCO[C@]1(c2ccc(-c3cc4c(N5CCN(C(=O)NC(C)C)CC5)ccnn4c3)nc2)CCCN(C(C)C)C1 [Compound 717] |
| < 10 | COC1(c2ccc(-c3cc4c(N5CCN(C(=O)C6CC(C#N)C6)CC5)ccnn4c3)cc2)CCCN(C(C)C)C1 (stereo not drawn) [Compound 730] |
| < 10 | NCC(O)c1ccc(-c2cc3c(N4CCN(C(=O)C5CC5)CC4)ccnn3c2)cc1 (stereo not drawn) [Compound 751] |
| < 10 | O=C(C1CC1)N1CCN(c2ccnn3cc(-c4ccc(CNCCO)cc4)cc23)CC1 [Compound 756] |
| < 10 | NC(CO)Cc1ccc(-c2cc3c(N4CCN(C(=O)C5CC5)CC4)ccnn3c2)cc1 (stereo not drawn) [Compound 757] |
| < 10 | COCC(N)c1ccc(-c2cc3c(N4CCN(C(=O)C5CC5)CC4)ccnn3c2)cc1 (stereo not drawn) [Compound 758] |
| < 10 | NC(CO)c1ccc(-c2cc3c(N4CCN(C(=O)C5CC5)CC4)ccnn3c2)c(F)c1 (stereo not drawn) [Compound 759] |
| < 10 | CCS(=O)(=O)c1ccc(-c2cc3c(N4CCN(C(=O)C5CC5)CC4)ccnn3c2)cc1 [Compound 765] |
| < 10 | O=C(C1CC1)N1CCN(c2ccnn3cc(-c4ccc(C5CC6(CNC6)C5)cc4)cc23)CC1 [Compound 767] |
| < 10 | NC(c1ccc(-c2cc3c(N4CCN(C(=O)C5CC5)CC4)ccnn3c2)cc1)C1CCCO1 (stereo not drawn) [Compound 769] |
| < 10 | CO[C@]1(c2ccc(-c3cc4c(N5CCN(C(=O)NC(C)C)CC5)ccnn4c3)cc2F)CCCNC1 [Compound 806] |
| < 10 | CO[C@@]1(c2ccc(-c3cc4c(N5CCN(C(=O)NC(C)C)CC5)ccnn4c3)cc2F)CCCNC1 [Compound 807] |
| 10 to 50 | CC(C)N1CCC(c2ccc(-c3cc4c(N5CCN(C(=O)NCC(F)F)CC5)ccnn4c3)cc2)CC1 [Compound 822] |
| 10 to 50 | CC(C)N1CCC(c2ccc(-c3cc4c(N5CCN(C(=O)N6CC7(COC7)C6)CC5)ccnn4c3)cc2)CC1 [Compound 841] |
| 10 to 50 | CC(C)N1CCC(c2ccc(-c3cc4c(N5CCN(C(=O)N6CCC67COC7)CC5)ccnn4c3)cc2)CC1 [Compound 842] |
| < 10 | CCOC1(c2ccc(-c3cc4c(N5CCN(C(=O)NC(C)C)CC5)ccnn4c3)nc2)CCN(C[C@@H](C)F)CC1 [Compound 862] |
| < 10 | CCOC1(c2ccc(-c3cc4c(N5CCN(C(=O)OC6COC6)CC5)ccnn4c3)nc2)CCN(C(C)CF)CC1 (stereo not drawn) [Compound 881] |

| SMILES | IC50 [nM] |
| --- | --- |
| O=C(C1CC1)N1CCN(c2ccnn3cc(-c4ccc(C5=CCNCC5)cc4)cc23)CC1 [Compound 458] | < 10 |
| COC1(c2ccc(-c3cc4c(N5CCN(C(=O)[C@H]6C[C@H](C#N)C6)CC5)ccnn4c3)nc2)CCN([C@H](C)CO)CC1 [Compound 742] | < 10 |
| O=C(C1CC1)N1CCN(c2ccnn3cc(-c4ccc(C5(C(=O)O)CCNCC5)cc4)cc23)CC1 [Compound 781] | 10 to 50 |
| CCOC1(c2ccc(-c3cc4c(N5CCN(C(=O)O[C@@H](C)CF)CC5)ccnn4c3)nc2)CCN(C(C)C)CC1 [Compound 866] | < 10 |

From US10233186B2, “Inhibitors of activin receptor-like kinase” (BLUEPRINT MEDICINES CORPORATION, priority 2016, dated 2019)
